The values below come from patent EP4711372A1, “CRYSTAL FORM OF HETEROCYCLIC COMPOUND, SALT THEREOF, CRYSTAL FORM OF SALT THEREOF, AND USE” (Hubei Bio-Pharmaceutical Industrial Technological Institute …, priority 2023, dated 2024).

A short description of series [1]: Solid-state stability evaluation test (XRPD and HPLC). The class given is physicochemical. On the procedure:
(§1) The purity test, dynamic solubility test, and stability test in the assay were performed using an ultra-performance liquid chromatograph (UPLC).
Their physical and chemical stability were evaluated by XRPD and HPLC.

Series [2] in a line: Hygroscopicity test (DVS). The series is classed as physicochemical. On the procedure: Dynamic vapor sorption (DVS) curves were collected on DVS Intrinsic Plus from SMS (Surface Measurement Systems). The relative humidity at 25°C was corrected using the deliquescence points of LiCl, Mg(NO3)2, and KCl.
Series [3] can be described thus: Dynamic solubility test of crystal forms in H2O, SGF, FaSSIF and FeSSIF. The series is classed as physicochemical. Particulars: 37°C; for S: concentration of the compound represented by formula I-3B / solubility thermodynamic at 24 h: loading 10 mg/mL; for solubility thermodynamic at 24 h: read-out: S: concentration of the compound represented by formula I-3B; for FC: crystal form conversion: XRPD; for pH: filtrate. On the procedure:
as §1
After sampling at each time point, the samples were centrifuged (12,000 rpm, 2 minutes) and filtered (0.45 µm PTFE membrane), and the HPLC concentration and pH value of the filtrate were measured. The solid samples after centrifugation were tested for XRPD.

Series [4] concerns mouse IPF prevention model. Nature of the series: Efficacy test on mouse IPF prevention model (Bleomycin-induced). The series is classed as in vivo, mice. Particulars: mean; Nintedanib 60 mg/kg qd, oral gavage, 21 consecutive days. On the procedure:
Male mice were adaptively fed for 1 to 2 weeks and after reaching the standard weight (25 g), the IPF model (idiopathic pulmonary fibrosis model) was induced with a certain dose of Bleomycin. On the day of modeling, the animals were randomly divided into a model group and an administration group according to their weight, in which the administration groups were administered Nintedanib (60 mg/kg, once a day (qd)) and compound I-3B obtained in Example 1 (2.5 mg/kg, twice a day (bid)) by oral gavage for 21 consecutive days while the vehicle control group was administered blank vehicle. During the administration period, the animals were weighed every 3 days. At the end of the last day of administration, the animals were euthanized. The lungs were removed from the thyroid cartilage (without perfusion), slowly perfused with 10% formalin until both lungs were filled, and fixed in 10% formalin 5 to 10 times the volume of the tissues after the trachea was ligated. The left lung tissues were embedded in paraffin wax, sectioned, and stained with HE and Masson Trichrome. The sections were subjected to panoramic scanning using a Hamamatsu NanoZoomer Digital Pathology (S210) slide scanner for pathological analysis.

The test system of series [5] is mouse IPF treatment model. Nature of the series: Efficacy test on mouse IPF treatment model (Bleomycin-induced). The class given is in vivo, mice. The conditions noted are these: mean; Nintedanib 60 mg/kg qd, oral gavage, 14 consecutive days from day 7. On the procedure:
Male mice were adaptively fed for 1 to 2 weeks and after reaching the standard weight (25 g), the IPF model (idiopathic pulmonary fibrosis model) was induced with a certain dose of Bleomycin. On the day of modeling, the animals were randomly divided into a model group and an administration group according to their weight, in which the administration groups were administered Nintedanib (60 mg/kg, qd), low-dose compound I-3B obtained in Example 1 (1 mg/kg, bid), and high-dose compound I-3B obtained in Example 1 (2.5 mg/kg, bid) by oral gavage for 14 consecutive days starting from day 7 while the vehicle control group was administered blank vehicle. During the administration period, the animals were weighed twice a week. At the end of the last day of administration, the animals were euthanized. The lungs were removed from the thyroid cartilage (without perfusion), slowly perfused with 10% formalin until both lungs were filled, and fixed in 10% formalin 5 to 10 times the volume of the tissues after the trachea was ligated. The left lung tissues were embedded in paraffin wax, sectioned, and stained with HE and Masson Trichrome. The sections were subjected to panoramic scanning using a Hamamatsu NanoZoomer Digital Pathology (S210) slide scanner for pathological analysis.

The nature of series [6]: Pharmacokinetics in mice (oral gavage). The class given is in vivo. The conditions noted are these: mouse, plasma, male CD-1 mice, 10 mg/kg. On the procedure:
The pharmacokinetic properties of the compounds obtained in Example 1 in mice were determined with reference to the following experimental methods.
Three male CD-1 mice were administered by oral gavage at a dose of 10 mg/kg, and the vehicle was 5% DMSO + 10% Solutol + 85% Saline. The mice were fasted overnight, and the time points of blood collection were before administration and at 15 minutes, 30 minutes, 1 hour, 2 hours, 4 hours, 8 hours, and 24 hours after administration. Blood samples were centrifuged at 6,800 g for 6 minutes at 2 to 8°C, and plasma was collected and stored at - 80°C. 10 µL of plasma at each time point was taken and added with 200 µL of methanol containing 100 ng/mL internal standard. The mixture was vortexed, mixed well, and centrifuged at 18,000 g for 7 minutes at 2 to 8°C. 200 µL of the mixture was transferred to a 96-well injection plate for LC-MS/MS quantitative analysis. The main pharmacokinetic parameters were analyzed using WinNonlin 7.0 software with non-compartmental model.

For a further series, the target named is T1, 15-PGDH (Homo sapiens, UniProt P15428).
T1 construct: purchased R&D Systems 5660-DH-010
T1 sequence (P15428 1-266): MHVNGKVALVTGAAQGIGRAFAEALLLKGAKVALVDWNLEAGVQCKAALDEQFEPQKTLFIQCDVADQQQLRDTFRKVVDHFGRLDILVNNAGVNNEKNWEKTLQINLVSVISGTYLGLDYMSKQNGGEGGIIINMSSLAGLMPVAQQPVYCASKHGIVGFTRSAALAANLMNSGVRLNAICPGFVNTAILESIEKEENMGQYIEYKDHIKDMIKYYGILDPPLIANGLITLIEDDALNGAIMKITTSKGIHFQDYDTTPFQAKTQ
Nature of the series: 15-PGDH enzyme inhibition assay (fluorescence, NAD+/PGE2). The series is classed as biochemical. The conditions noted are these: 15-PGDH inhibition. On the procedure: 15-PGDH (R&D Systems, Cat. No. 5660-DH-010) was prepared to twice the final concentration, i.e., 30 nM, using Assay Buffer (50 mM Tris-HCl, pH 7.5, 0.01% Tween 20 by volume). 15-PGDH was then added to a 384-well white plate (Cisbio Bioassays, Cat. No. 66PL384025) at 8 µL/well. Negative control wells (with Assay Buffer only and without enzyme) were set. The compound was then prepared to 4 times the final concentration using Assay Buffer, i.e., diluted 3-fold to 10 concentrations starting from 4000 nM. The compound was added to the above white plate at 4 µL/well, mixed well, centrifuged at 1000 rpm for 1 minute, and incubated at 25°C for 10 minutes. Both positive control wells (with 15-PGDH only) and negative control wells (without 15-PGDH) were set. A mixture of NAD^+ (Select, Cat. No. S2518) and PGE2 (R&D Systems, Cat. No.:2296110) was then prepared using Assay Buffer. NAD^+ and PGE2 were prepared to four times their final concentrations, i.e., 2 mM and 0.12 mM, respectively, using Assay Buffer. The mixture was then added to the above white plate at 4 µL/well, mixed well, centrifuged at 1000 rpm for 1 minute, and incubated at 25°C for 30 minutes for the reaction. The fluorescence was measured at an excitation wavelength of 340 nm and an emission wavelength of 485 nm using a TECAN SPARK 20M microplate reader. The IC50 value was calculated using four-parameter fitting with GraphPad Prism 8.0.

In brackets after ≈: the same amount, converted by molar mass. Like-named read-outs stand apart in the source and are kept apart here.

Turning to `Cn1nc2cc(N3C[C@H]4C[C@H]4c4cc(C(=O)N5CCC(F)(F)CC5)cnc43)ccn2c1=O` [listing 1 of 2 here], the HPLC purity in series [1] (peak at RRT 0.52 (impurity), 25°C/60% RH/open/1 week) is 0.22 area%; in series [1] (peak at RRT 0.52 (impurity), 40°C/75% RH/open/1 week), 0.22 area%; in series [1] (peak at RRT 0.52 (impurity), 60°C/closed/1 day) it was 0.22 area%; in series [1] (peak at RRT 0.52 (impurity), Onset), 0.22 area%; in series [1] (peak at RRT 0.97 (impurity), 25°C/60% RH/open/1 week), 0.10 area%; in series [1] (peak at RRT 0.97 (impurity), 40°C/75% RH/open/1 week), 0.09 area%. The HPLC purity in series [1] (peak at RRT 0.97 (impurity), 60°C/closed/1 day) is 0.10 area%; in series [1] (peak at RRT 0.97 (impurity), Onset), 0.10 area%. The “moisture absorption weight gain” value in series [2] (25°C/80% RH) was 1.112%. Also, the “change in crystal form after DVS testing (XRPD)” value in series [2] (before and after DVS testing) is on record as “no change in crystal form”.

For `Cn1nc2cc(N3C[C@H]4C[C@H]4c4cc(C(=O)N5CCC(F)(F)CC5)cnc43)ccn2c1=O` [listing 2 of 2 here], the “S: concentration of the compound represented by formula I-3B” value is reported as 2.6 mg/mL in series [3] (FaSSIF, 1 hour); 2.5 mg/mL in series [3] (FaSSIF, 4 hours); 3.0 mg/mL in series [3] (FeSSIF, 1 hour); 3.4 mg/mL in series [3] (FeSSIF, 4 hours); 3.3 mg/mL in series [3] (H2O, 1 hour); 2.6 mg/mL in series [3] (H2O, 4 hours). The “S: concentration of the compound represented by formula I-3B” value in series [3] (SGF, 1 hour) is recorded as 5.3 mg/mL; in series [3] (SGF, 4 hours), 5.1 mg/mL. Further, the solubility thermodynamic at 24 h in series [3] (FaSSIF, 24 hours) was 2700 µg/mL (≈ 6.13 mM); in series [3] (FeSSIF, 24 hours) it was 3900 µg/mL (≈ 8.85 mM); in series [3] (simulated gastric fluid, SGF, 24 hours) it was 4700 µg/mL (≈ 10.7 mM); in series [3] (water, H2O, 24 hours) it was 900 µg/mL (≈ 2.04 mM). Besides, the “FC: crystal form conversion” value is “No” in series [3] (FaSSIF, 1 hour); “No” in series [3] (FaSSIF, 4 hours); “No” in series [3] (FaSSIF, 24 hours); “No” in series [3] (FeSSIF, 1 hour); “No” in series [3] (FeSSIF, 4 hours); “No” in series [3] (FeSSIF, 24 hours). Moreover, the “FC: crystal form conversion” value is given as “No” in series [3] (H2O, 1 hour); “No” in series [3] (H2O, 4 hours); “No” in series [3] (H2O, 24 hours); “No” in series [3] (SGF, 1 hour); “No” in series [3] (SGF, 4 hours); “No” in series [3] (SGF, 24 hours). The pH in series [3] (FaSSIF, 1 hour) stood at 6.46; in series [3] (FaSSIF, 4 hours), 6.60; in series [3] (FaSSIF, 24 hours), 6.70; in series [3] (FeSSIF, 1 hour) it was 4.91; in series [3] (FeSSIF, 4 hours), 4.96; in series [3] (FeSSIF, 24 hours), 4.93. Also, the pH in series [3] (H2O, 1 hour) was 8.57; in series [3] (H2O, 4 hours), 8.59; in series [3] (H2O, 24 hours), 8.95; in series [3] (SGF, 1 hour) it was 1.82; in series [3] (SGF, 4 hours), 1.94; in series [3] (SGF, 24 hours), 2.11.

For the compound `COC(=O)c1ccc2c(c1)NC(=O)/C2=C(\Nc1ccc(N(C)C(=O)CN2CCN(C)CC2)cc1)c1ccccc1` [Nintedanib, reference compound], the “Total pulmonary fibrosis score” value is on record as 3.39 in series [4] and 2.84 in series [5].

For orientation: AUC(0-t) means exposure summed from dosing to a finite time, without extrapolation to infinity. Higher therefore signals more exposure. As usually defined, the Cmax is the peak of the concentration-time curve. One may read the IC50 as the concentration that gives 50% inhibition. High values mean weaker potency, low ones greater potency. With `Cn1nc2cc(N3CC4CC4c4cc(C(=O)N5CCC(F)(F)CC5)cnc43)ccn2c1=O` (stereo not shown) [compound I-3, 7-(6-(4,4-difluoropiperidine-1-carbonyl)-1,1a,2,7b-tetrahydro-3H-cyclopropa[c][1,8]naphthyridin-3-yl)-2-methyl-[1,2,4]triazolo[4,3-a]pyridin-3(2H)-one], in series [6], the AUC(0-t) was found to be 35500 ng·h/mL and the highest level (Cmax) was 3710 ng/mL. This compound also displayed an IC50 at 15-PGDH of 4.2 nM.

The compound `Cn1nc2cc(N3CC4CC4c4cc(C(=O)N5CCC(F)(F)CC5)cnc43)ccn2c1=O` (stereo not shown) [compound I-3A] came in with an IC50 at 15-PGDH of 12.2 nM.
